The values that follow come from publication PMC7026885, “Macrofilaricidal Benzimidazole–Benzoxaborole Hybrids as an Approach to the Treatment of River Blindness: Part 1. Amide Linked Analogs” (ACS Infectious Diseases, 2019).

Where two headings read alike, the source gives them in different places.

In one data set the test system is Brugia malayi. Nature of the data set: Adult Brugia malayi transplantation in vivo model in gerbils. Particulars: for adult worm reduction / animals with no worms: B. malayi, necropsy day 42, QD. As for the experimental part: (§1) We characterized the in vitro ADME properties of 8a in preparation for evaluation of this compound in our primary in vivo model in gerbils. […] We were pleased to find that 8a was able to kill 100% of both male and female worms in the gerbil peritoneum when dosed subcutaneously at 100 mg/kg/day for 14 days as a suspension in a nonsolubilizing HEC/Tween vehicle. […] The subsequent assessment of the pharmacokinetics of 8a from these two dosing paradigms provided an interesting observation that we believe to be important in understanding the PK–PD requirements for achieving efficacy in this animal model. […] We had made the same observation in a positive control group using flubendazole at a subcutaneous dose of 10 mg/kg/day for 5 days in the nonsolubilizing HEC/Tween vehicle, namely, that plasma levels of flubendazole were maintained above the in vitro IC50 (4 nM) for over 42 days, consistent with data reported in the literature.[43] […] We next examined 8a in two additional in vivo models, the first where L3 B. pahangi larvae were injected into the peritoneum of gerbils and allowed to develop into adult worms[45] and a second where gerbils were naturally infected by the filarial nematode Litomosoides sigmodontis.[46],[47] In both of these models, 8a was administered subcutaneously at 100 mg/kg for 14 days or orally at 100 mg/kg for 28 days as a suspension. […] Additionally, when plasma obtained from treated animals at necropsy was analyzed for 8a, we observed an outcome similar to that observed in the adult implantation model, e.g., that measurable levels were present at this time point in the subcutaneous-dosed groups but not in the orally dosed groups, weeks after administration of the drug. In a final L. sigmodontis experiment with 8a, we dosed the compound subcutaneously at 300 mg/kg for 7 days as a suspension.
Plates were incubated at 37 °C in a 5% CO2 incubator for 6 days, then molting was assessed visually using an inverted microscope. Molting was determined in each well by counting the presence of fourth stage larvae (L4s) and empty casts of L3s.
The percent inhibition of molting was calculated based on the number of treated larvae that were able to molt in comparison to the number of control larvae that had successfully molted. IC50 values were calculated using GraphPad Prism v6.0
(http://www.graphpad.com). See Bullman et al., PLoS Negl. Trop.
Adult Brugia malayi transplantation in vivo model procedure.
Gerbils (Meriones unguiculatus) were infected by transplantation of 10 male and 10 female adult Brugia malayi into the peritoneal cavity. Gerbils were acclimated for 7 days prior to treatment. Animals were dosed based on their body weight prior to each dosing. Animals were administered their doses at the same time each day and receive standard rodent laboratory diet and water ad libitum. Gerbils were humanely euthanized at the conclusion of each study. Peritoneal counts of male and female adult B. malayi and visual condition of the peritoneum were recorded.
Brugia pahangi L3 injection in vivo model procedure 8.
Male gerbils (Meriones unguiculatus) approximately 6 weeks of age (50-60 g) were purchased from Charles Rivers (USA, Kingston K62 Gerbils) and infected by intraperitoneal injection with 200 Brugia pahangi third-stage larvae (L3) per animal
(Filariatech, Inc., Athens, GA). Gerbils were housed with no more than 5 animals per cage and maintained 9 months prior to treatment. All gerbils were dosed in accordance with their body weight determined prior to each dosing. Animals were […]

Data set [1] is described as follows: MDR1-MDCK monolayer permeability assay. Particulars: dog. In kind it is in vitro ADME. The procedure: as §1
For the next data set, the system named is Litomosoides sigmodontis. Nature of the data set: Litomosoides sigmodontis natural infection in vivo model. The note with it: L. sigmodontis, necropsy day 63, QD. The procedure:
We characterized the in vitro ADME properties of 8a in preparation for evaluation of this compound in our primary in vivo model in gerbils. […] We were pleased to find that 8a was able to kill 100% of both male and female worms in the gerbil peritoneum when dosed subcutaneously at 100 mg/kg/day for 14 days as a suspension in a nonsolubilizing HEC/Tween vehicle. […] The subsequent assessment of the pharmacokinetics of 8a from these two dosing paradigms provided an interesting observation that we believe to be important in understanding the PK–PD requirements for achieving efficacy in this animal model. […] We had made the same observation in a positive control group using flubendazole at a subcutaneous dose of 10 mg/kg/day for 5 days in the nonsolubilizing HEC/Tween vehicle, namely, that plasma levels of flubendazole were maintained above the in vitro IC50 (4 nM) for over 42 days, consistent with data reported in the literature.[43] […] We next examined 8a in two additional in vivo models, the first where L3 B. pahangi larvae were injected into the peritoneum of gerbils and allowed to develop into adult worms[45] and a second where gerbils were naturally infected by the filarial nematode Litomosoides sigmodontis.[46],[47] In both of these models, 8a was administered subcutaneously at 100 mg/kg for 14 days or orally at 100 mg/kg for 28 days as a suspension. […] Additionally, when plasma obtained from treated animals at necropsy was analyzed for 8a, we observed an outcome similar to that observed in the adult implantation model, e.g., that measurable levels were present at this time point in the subcutaneous-dosed groups but not in the orally dosed groups, weeks after administration of the drug. In a final L. sigmodontis experiment with 8a, we dosed the compound subcutaneously at 300 mg/kg for 7 days as a suspension. […]
administered their doses at the same time each day and are allowed to feed and drink ad libitum. Gerbils were euthanized following approved institutional protocols. Euthanized animals were weighed and examined for external and visceral pathologies.
The adult Brugia worms were recovered by opening the body cavity and washing the peritoneal cavity with 100 mL of phosphate buffered saline. Male and female worms were counted using a
Litomosoides sigmodontis natural infection in vivo model
All animal experiments with L. sigmodontis were conducted at the Institute for Medical Microbiology, Immunology and Parasitology
(IMMIP), University Hospital of Bonn, in accordance to the European Union animal welfare guidelines. All protocols were approved by the local authorities (Landesamt für Natur, Umwelt […]
from Janvier (Saint-Berthevin, France) and were housed at the animal facility of the IMMIP in individually ventilated cages on a 12h light/dark cycle with food and water ad libidum. Mice were infected at 6-8 weeks of age via exposure to the natural mite vector Ornithonyssus bacoti containing infectious L. sigmodontis
L3 larvae. To compare the infection, the same batch of mite-containing bedding was used to infect all animals of one experiment. 35 days post infection, a time point adult worms have developed within the thoracic cavity, mice were treated per oral gavage with the test compounds at concentrations indicated in the result section. As a vehicle, 1% CMC + 0.1% Tween80 was used. Negative controls were treated with vehicle and as positive control, mice were treated orally with doxycycline
(Sigma) in 10% DMSO/1xPBS. Necropsies were performed at 64-77

Setting [2] is: 100 mg/kg × 14 days, SC (suspension).
The mark [3] stands for this setting: 100 mg/kg × 28 days, PO (suspension).
The mark [4] stands for this setting: 150 mg/kg × 14 days, SC (solution).
Where [5] appears, read: 300 mg/kg × 7 days, SC (suspension).

A word on the Papp A→B: it is the apparent permeability from the apical to the basolateral side of a cell layer. For `COC(=O)Nc1nc2cc(C(=O)NCc3ccc4c(c3)B(O)OC4(C)C)ccc2[nH]1` [8a], the adult worm reduction in the data set with Brugia malayi (setting [2]) is reported as 100%; in the data set on Brugia malayi (setting [3]) it was 12.5%; in the data set with Brugia malayi (setting [4]) it was 83.3%; in the data set on Litomosoides sigmodontis (setting [3]), “–135.3%”; in the data set on Litomosoides sigmodontis (setting [5]), 100%/100%. Further, the “animals with no worms” value with Brugia malayi (setting [2]) stood at 87.5%; with Brugia malayi (setting [3]), 0%; in the data set on Brugia malayi (setting [4]) it was 50%; in the data set with Litomosoides sigmodontis (setting [3]) it was 0%; in the data set with Litomosoides sigmodontis (setting [5]) it was 100%/100%. Besides, the in vivo efficacy entry in the data set with Brugia malayi (SC 150 mg/kg/day as a solution in DMSO/water vehicle) is recorded as “substantially reduced”. Besides, the “kill of both male and female worms in the gerbil peritoneum” value in the data set with Brugia malayi (implanted adult B. malayi or B. pahangi, SC 100 mg/kg/day for 14 days, suspension in HEC/Tween vehicle) is recorded as 100%. Besides, in the data set with Brugia malayi (oral, 100 mg/kg/day for 28 days), the “in vivo efficacy by the oral route” value was “not efficacious”. In data set [1], this molecule gave a Papp A→B of 0.8 ×10⁻⁶ cm/s.

Take `COC(=O)Nc1nc2cc(C(=O)c3ccc(F)cc3)ccc2[nH]1` [compound 1, Flubendazole, reference compound]: in the data set with Brugia malayi (10 mg/kg × 5 days, SC), the adult worm reduction was 100%/100% and the “animals with no worms” value came out at 100%/100%. Further, the apparent permeability from apical to basolateral (Papp A→B) in data set [1] (A-B, Table 1, read-out: MDCK-MDR1 Papp (A-B)) came to 15.6 ×10⁻⁶ cm/s. In the data set with Litomosoides sigmodontis (10 mg/kg × 5 days, SC), the adult worm reduction is recorded as 100%/100% and the “animals with no worms” value was found to be 100%/100%.
